Results as given in ChEMBL document CHEMBL1201862, “PubChem BioAssay data set” (2004).
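Step 1: Grow cells in 96-well plates. Step 2: Expose to compound for 48 hours at 5 concentrations. Step 3: Interpolate endpoints linearly; if unreached, use highest concentration. GI50 marks 50% less growth.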 Active and inactive are the calls of the source. No stated cut-off is given here; in the data, active = GI50 up to about 1.1 µM and inactive = higher.

Assays:
Test in all cases: inhibition of tumour cell growth, NCI panel, 48 h
786-0 = test system: 786-0
A498 = test system: A498
A549 = test system: A549
ACHN = test system: ACHN
CCRF-CEM = test system: CCRF-CEM
COLO 205 = test system: COLO 205
DLD-1 = test system: DLD-1
DMS-114 = test system: DMS-114
DMS-273 = test system: DMS-273
EKVX = test system: EKVX
HCC 2998 = test system: HCC 2998
HCT-116 = test system: HCT-116
HCT-15 = test system: HCT-15
HL-60 = test system: HL-60
HOP-18 = test system: HOP-18
HOP-62 = test system: HOP-62
HOP-92 = test system: HOP-92
HT-29 = test system: HT-29
K562 = test system: K562
KM-20L2 = test system: KM-20L2
KM12 = test system: KM12
LXFL 529 = test system: LXFL 529
M14 = test system: M14
M19-MEL = test system: M19-MEL
MOLT-4 = test system: MOLT-4
Malme-3M = test system: Malme-3M
NCI-H23 = test system: NCI-H23
NCI-H460 = test system: NCI-H460
NCI-H522 = test system: NCI-H522
OVCAR-3 = test system: OVCAR-3
OVCAR-4 = test system: OVCAR-4
OVCAR-5 = test system: OVCAR-5
OVCAR-8 = test system: OVCAR-8
RPMI-8226 = test system: RPMI-8226
RXF 393 = test system: RXF 393
RXF 631 = test system: RXF 631
SF-268 = test system: SF-268
SF-295 = test system: SF-295
SF-539 = test system: SF-539
SK-MEL-28 = test system: SK-MEL-28
SK-MEL-2 = test system: SK-MEL-2
SK-MEL-5 = test system: SK-MEL-5
SN12C = test system: SN12C
SNB-19 = test system: SNB-19
SNB-75 = test system: SNB-75
SNB-78 = test system: SNB-78
SW-620 = test system: SW-620
TK-10 = test system: TK-10
U-251 = test system: U-251
UACC-257 = test system: UACC-257
UACC-62 = test system: UACC-62
UO-31 = test system: UO-31
IGROV-1 = test system: IGROV-1
LOX IMVI = test system: LOX IMVI
NCI-H226 = test system: NCI-H226
SK-OV-3 = test system: SK-OV-3
SR = test system: SR
XF498 = test system: XF498

Measured: GI50

COCCCNC(=O)C1C(=O)N(CCCOC)C(=O)/C1=N\N (configuration not stated)
inactive: 786-0 > 100 µM | A498 > 100 µM | A549 > 100 µM | ACHN > 100 µM | CCRF-CEM > 100 µM | COLO 205 > 100 µM | DLD-1 > 100 µM | DMS-114 > 100 µM | DMS-273 > 100 µM | EKVX > 100 µM | HCC 2998 > 100 µM | HCT-116 > 100 µM | HL-60 > 100 µM | HOP-18 > 100 µM | HOP-62 > 100 µM | HOP-92 > 100 µM | HT-29 > 100 µM | K562 > 100 µM | KM-20L2 > 100 µM | KM12 > 100 µM | LXFL 529 > 100 µM | M14 > 100 µM | M19-MEL > 100 µM | MOLT-4 > 100 µM | Malme-3M > 100 µM | NCI-H23 > 100 µM | NCI-H460 > 100 µM | NCI-H522 > 100 µM | OVCAR-3 > 100 µM | OVCAR-4 > 100 µM | OVCAR-5 > 100 µM | OVCAR-8 > 100 µM | RPMI-8226 > 100 µM | RXF 393 > 100 µM | RXF 631 > 100 µM | SF-268 > 100 µM | SF-295 > 100 µM | SF-539 > 100 µM | SK-MEL-28 > 100 µM | SK-MEL-2 > 100 µM | SK-MEL-5 > 100 µM | SN12C > 100 µM | SNB-19 > 100 µM | SNB-75 38.3 µM | SNB-78 > 100 µM | SW-620 > 100 µM | TK-10 > 100 µM | U-251 > 100 µM | UACC-257 > 100 µM | UACC-62 > 100 µM | UO-31 > 100 µM
> 100 µM: HCT-15

[O-][Cl+3]([O-])([O-])[O-].c1ccc(C[P+]2(c3ccccc3)CCCCC2)cc1
inactive: 786-0 > 100 µM | A498 > 100 µM | A549 > 100 µM | ACHN > 100 µM | CCRF-CEM > 100 µM | COLO 205 34 µM | DLD-1 > 100 µM | DMS-114 48.5 µM | DMS-273 79.3 µM | EKVX > 100 µM | HCC 2998 70.8 µM | HCT-116 23.7 µM | HL-60 29.4 µM | HOP-18 > 100 µM | HOP-62 > 100 µM | HT-29 72.8 µM | IGROV-1 > 100 µM | K562 > 100 µM | KM-20L2 > 100 µM | KM12 > 100 µM | LOX IMVI 85.1 µM | LXFL 529 38.3 µM | M14 > 100 µM | M19-MEL 28.8 µM | MOLT-4 > 100 µM | Malme-3M > 100 µM | NCI-H226 > 100 µM | NCI-H23 > 100 µM | NCI-H460 > 100 µM | NCI-H522 34.5 µM | OVCAR-3 73.1 µM | OVCAR-4 > 100 µM | OVCAR-5 > 100 µM | OVCAR-8 > 100 µM | RPMI-8226 34.7 µM | RXF 393 > 100 µM | SF-295 > 100 µM | SF-539 > 100 µM | SK-MEL-28 > 100 µM | SK-MEL-2 95.5 µM | SK-MEL-5 28.7 µM | SK-OV-3 > 100 µM | SN12C > 100 µM | SNB-19 > 100 µM | SNB-75 88.9 µM | SNB-78 > 100 µM | SR 86.7 µM | SW-620 > 100 µM | TK-10 > 100 µM | U-251 38.4 µM | UACC-257 34.4 µM | UACC-62 61.7 µM | UO-31 > 100 µM | XF498 33.6 µM
> 100 µM: HCT-15
